Data: patent US10010569B2, “Seaweed extracts, unsaturated fatty acids, and methods of treatment” (priority 2012, dated 2018)
“And” between values parts separate entries of the source, which are not always exact repeats. Identical values can stand only once.

Tests used:
Format in all cases: cell-based, human
NRF2 = NRF2 mRNA levels by qPCR in IMR-32 cells; settings: 1-10 μg/ml, 12 h
Description: (§1) Cultured cells were treated in the same way as described for the immunoblot experiments. After 12 h, total RNA was extracted using a commercial kit (RNeasy Mini Kit, Qiagen). For mice tissues, total RNA was extracted using TRIzol® reagent (Invitrogen) following the standard manufacturer's protocol.
(§2) cDNA synthesis and qPCR experiments for both cultured cells and mice tissues were performed following the same procedure. 2 μg of each RNA sample was reverse-transcribed into cDNA, which served as a template for TagMan® gene expression assays (Applied Biosystems). For each qPCR run, a total reaction volume of 25 μl was prepared consisting of 12.5 μl of TaqMan 2× universal master mix, 1.25 μl of a 20× TaqMan gene expression assay probe, 1 μl of cDNA and 10.25 μl of RNase-free sterile water. The reactions were dispensed into 96-well optical reaction plates (Applied Biosystems) and detected in an Applied Biosystems® 7300 Real-Time PCR System. The thermocycler program consisted of 2 min at 50° C., 10 min at 95° C., and 40 cycles of 95° C. for 15 s and 60° C. for 1 min. For normalization, GAPDH expression was used as an internal control for human cells (IMR-32) and β-actin for mice tissue samples.

NQO1 [1] = test: Kinase inhibitor pre-treatment and NQO1 immunoblot; settings: 10 μg/ml, 24 h, 30 min pre-treatment with PD98059 50 μM
Description: (§3) IMR-32 cells (800,000 cells/well) were seeded into each well of 6-well plates. 24 h later, cells were treated with solvent control (EtOH, 0.5%, v/v) or fractions/compounds. After another 24 h, whole cell lysates were collected in PhosphoSafe buffer (Novagen) following the manufacturer's protocol and stored at −80° C. until analyzed. For each sample, the protein concentration was measured using a BCA assay kit (Pierce). Samples containing equal amount of total protein were separated by SDS-PAGE (NuPAGE® Novex® 4-12% Bis-Tris Mini gels, Invitrogen), transferred onto a PVDF membrane, and incubated overnight with the indicated primary antibodies at 4° C. on an orbital shaker. The membranes were then incubated with the corresponding secondary antibodies (HRP-linked) for 1 h at room temperature and detected with Supersignal Femto Western Blotting kit (Pierce). Anti-NQO1 (mouse) antibody was from Abcam; anti-β-actin (rabbit), anti-mouse-HRP, and anti-rabbit-HRP antibodies were from Cell Signaling Technology.
For assays in the presence of an antioxidant, the cells were pretreated with excess NAC (1 mM, pH 7.50) for 2 h before they were treated with solvent control or the compounds (see above). […]

glutathione = test: Glutathione assay in IMR-32 cells
Description: Glutathione assays were performed following the manufacturer's protocol (Sigma). Briefly, IMR-32 cells (800,000 cells/well) were seeded into 6-well plates and incubated at 37° C. The cells were then treated with solvent control (EtOH, 0.5%, v/v) or compound 1 for the indicated period of time. At the end of each treatment, the cells were washed twice with Dulbecco's phosphate buffered saline (DPBS), harvested in 200 μl of DPBS, and pelleted at 600×g for 10 min at 4° C. After removal of DPBS, the cell pellet was deproteinized and re-suspended in 3 volumes of 5% sulfosalicylic acid solution (v/v). The suspension was frozen (liquid N2) and thawed (37° C. water bath) twice and then incubated at 4° C. for 5 min. The cell debris was spun down at 10,000×g for 10 min at 4° C. The supernatant was transferred to fresh tubes and used as glutathione stock. The concentration of the total glutathione (GSH+GSSG) was measured and compared with a standard curve of reduced glutathione (GSH).

ARE = test: ARE-luc reporter assay; settings: IMR-32 cells
Description: IMR-32 cells (33,000 cells/well) were transiently transfected with ARE-luc plasmid (100 ng/well) using FuGENE® HD (Roche Diagnostics) as a transfection reagent (1:3, w/v). The cells were dispensed into each well of a 96-well plate and incubated for 24 h. They were then treated with solvent control (DMSO or EtOH, 1%, v/v) or individual extracts/fractions/compounds for 24 h before ARE activities were detected by using BriteLite detection reagent (PerkinElmer). Relative fold activation for the treated samples over solvent control was reported. The ARE-luciferase (ARE-luc) reporter contains the ARE sequence of human NQO1: 5′-[…]-3′ [Moehlenkamp, J. D.; Johnson, J. A. Activation of antioxidant/electrophile-responsive elements in IMR-32 human neuroblastoma cells. Arch Biochem Biophys. 363:98-106; 1999].

NQO1 [2] = test: NQO1 protein expression by immunoblot in IMR-32 cells; settings: 24 h
Description: as §3

NQO1 [3] = test: NQO1 mRNA levels by qPCR in IMR-32 cells; settings: 1 μg/ml, 12 h
Description: as §1, §2

NQO1 [4] = test: RNA interference (NRF2 siRNA) and NQO1 immunoblot; settings: IMR-32 cells, NRF2 siRNA 48 h, then 24 h treatment
Description: as §3
IMR-32 cells (600,000 cells/well) were seeded in 6-well plates and incubated at 37° C. for 24 h. […] The treated cells were then lysed in PhosphoSafe buffer and whole cell lysates analyzed by immunoblot (see above). […]

[5] = 10 μg/ml, 24 h, over solvent control
[6] = 32 μg/ml, 24 h, over solvent control

Question: What does the source list for `CCCCCCCCCC(=O)/C=C/CCCCCC(=O)O` [Compound 1, 7(E)-9-keto-octadec-7-enoic acid]?
Answer: NRF2 mRNA levels (NRF2): remained unchanged; NQO1 expression in the presence of a MAPK (MEK1) inhibitor (NQO1 [1]): induced; glutathione level restored relative to basal level (glutathione; at 16 h): more than 50%; transient decrease of glutathione level (glutathione; until 8 h): < 30% and ~30%; glutathione level versus baseline (glutathione; up to 24 h): stayed above baseline; ARE activation (ARE; [5]): 17.6 fold; NQO1 protein expression (NQO1 [2]): detectable starting at 1 μg/ml and was the highest at 10 μg/ml; NQO1 mRNA level (NQO1 [3]): 1.5 fold; NQO1 expression in NRF2-depleted cells (NQO1 [4]): virtually undetectable

Question: How did the ARE activation (ARE; [5]) turn out when `CCCCCCCC(=O)/C=C/CCCCCC(=O)O` [Compound 2, 7(E)-9-keto-hexadec-7-enoic acid] was run?
Answer: 2.8 fold

Question: What about the ARE activation (ARE; [6]) of the same molecule?
Answer: 30.3 fold

Question: How did the ARE activation (ARE; [5]) turn out when `CCCCCCCCCC(=O)/C=C/CCCCCC(N)=O` [Compound 3, 7(E)-9-keto-octadec-7-enamide] was run?
Answer: 4.5 fold

Question: What about the ARE activation (ARE; [6]) of the same molecule?
Answer: 13.2 fold

Question: With `CC(C)(C)c1cc(O)ccc1O` [tBHQ, reference compound] as the molecule, how does the ARE activation (ARE; positive control, concentration not given) read?
Answer: 14.9 fold
